One assay concerns the target CDK2/Cyclin E1 (Homo sapiens, UniProt P24941). Kind of assay: CDK2/Cyclin E1 TR-FRET biochemical assay (1 mM ATP). As to conditions: 90 minutes reaction. As for the experimental part: (§1) Compounds disclosed herein were tested for inhibition of CDK2/Cyclin E1 or CDK1/Cyclin B1 kinase in an assay based on the time-resolved fluorescence-resonance energy transfer (TR-FRET) methodology. The assay was carried out in 384-well low volume black plates in a reaction mixture containing CDK2/Cyclin E1 or CDK1/Cyclin B1, 1 mM ATP for CDK2/Cyclin E1 and CDK1/Cyclin B1, 0.15 μM Rb (Ser780)-biotin substrate and 0-10 μM compound in buffer containing 50 mM HEPES pH7.0, 0.02% NaN3, 0.01% BSA, 0.1 mM Orthovanadate, 50 mM MgCl2, 1 mM DTT and 0.005% Tween-20. The kinase was incubated with compound for 60 minutes at room temperature and the reaction was initiated by the addition of ATP and Rb (Ser780)-biotin substrate. After reaction at room temperature for 90 minutes, an equal volume of stop/detection solution was added according to the manufacture's instruction (Cisbio Bioassays). The stop/detection solution contained Streptavidin-XL665 and Anti-pRb (Ser780) mAb-Eu Cryptate in Detection buffer (Cisbio Bioassays). Plates were incubated at room temperature for 60 minutes, and the TR-FRET signals (ex337 nm, em665 nm/620 nm) were recorded on a PHERAstar FSX plate reader (BMG Labtech). The inhibition percentage of CDK2/Cyclin E1 or CDK1/Cyclin B1 kinase activity in presence of increasing concentrations of compounds was calculated based on the ratio of fluorescence at 665 nm to that at 620 nm. The IC50 for each compound was derived from fitting the data to the four-parameter logistic equation by Dotmatics.

For a further assay, the target named is CDK1/Cyclin B1 (Homo sapiens, UniProt P06493). Kind of assay: CDK1/Cyclin B1 TR-FRET biochemical assay (1 mM ATP). The conditions noted are these: 90 minutes reaction. As for the experimental part: as §1
The next assay concerns HEK-293 cells. The assay can be described thus: HEK-293 cell cytotoxicity detection (CellTiter-Glo). The format is cell-based. The conditions noted are these: incubation of 72 h, CellTiter-Glo luminescence. As for the experimental part:
HEK-293 cells were treated with compounds diluted in 0.4% DMSO, dilution was done according to the following protocol: (1) making 250× stock solution in DMSO from 10 mM by 4-fold dilution, total 8 doses were included; (2) making 2 solution in cell culture medium by transferring 1 μl 250× stock solution into 124 μl medium; (3) adding 50 μl of 2× solution to cells for incubation of 72 h.
25 μl of the CellTiter-Glo® Reagent [(PromegaCat #G9242)] was added to each well in the 96-well plate. The contents were mixed for 2 minutes on an orbital shaker to induce cell lysis. The plate was then allowed to incubate at room temperature for 10 minutes to stabilize luminescent signal. Luminescence was recorded on BMG PheraStar with luminescence protocol.
The IC50 value of a compound can be obtained by fitting the following equation: […]
Wherein, X and Y are known values, and IC50, Hillslope, Top and Bottom are the parameters obtained by fitting with software. Y is the inhibition percentage (calculated from the equation), X is the concentration of the compound; IC50 is the concentration of the compound when the 50% inhibition is reached. The smaller the IC50 value is, the stronger the inhibitory ability of the compound is. Vice versa, the higher the IC50 value is, the weaker the ability the inhibitory ability of the compound is; Hillslope represents the slope of the fitted curve, generally around 1*; Bottom represents the minimum value of the curve obtained by data fitting, which is generally 0%±20%; Top represents the maximum value of the curve obtained by data fitting, which is generally 100%±20%. The experimental data were fitted by calculating and analyzing with Dotmatics data analysis software.
In general terms: Cellular ATP, detected with luciferase, serves as a proxy for viable cell number.

Read-outs that look alike come from different tables or passages of the source.

Sequence of CDK1/Cyclin B1 (P06493 whole entry): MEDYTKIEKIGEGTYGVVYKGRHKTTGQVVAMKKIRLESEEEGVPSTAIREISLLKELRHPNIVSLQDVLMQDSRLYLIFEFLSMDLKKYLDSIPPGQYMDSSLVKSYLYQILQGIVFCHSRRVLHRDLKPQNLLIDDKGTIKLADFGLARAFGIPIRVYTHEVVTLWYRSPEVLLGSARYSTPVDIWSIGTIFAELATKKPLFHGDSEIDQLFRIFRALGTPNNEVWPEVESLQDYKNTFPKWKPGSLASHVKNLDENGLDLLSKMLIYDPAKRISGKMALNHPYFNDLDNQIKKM
Sequence of CDK1/Cyclin B1 (P14635 whole entry partner): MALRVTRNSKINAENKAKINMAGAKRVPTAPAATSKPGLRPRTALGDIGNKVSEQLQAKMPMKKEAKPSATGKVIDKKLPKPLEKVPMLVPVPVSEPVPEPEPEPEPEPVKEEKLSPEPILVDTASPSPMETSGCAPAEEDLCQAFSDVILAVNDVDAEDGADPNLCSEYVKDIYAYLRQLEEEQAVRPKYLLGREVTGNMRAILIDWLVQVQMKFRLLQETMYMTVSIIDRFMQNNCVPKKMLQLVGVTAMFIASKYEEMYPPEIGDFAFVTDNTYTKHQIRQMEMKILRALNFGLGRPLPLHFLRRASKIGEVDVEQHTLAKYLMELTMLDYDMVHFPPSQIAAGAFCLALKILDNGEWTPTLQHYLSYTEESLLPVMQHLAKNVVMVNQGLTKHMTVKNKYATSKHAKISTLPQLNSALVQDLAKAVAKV

Regarding `CC(C)NC(=O)O[C@H]1CC[C@@H](c2cc(Nc3cc4c(cc3F)C[S+]([O-])C4)n[nH]2)C1` (relative stereo) [Example 29, cis-3-(3-((6-fluoro-2-oxido-1,3-dihydrobenzo[c]thiophen-5-yl)amino)-1H-pyrazol-5-yl)cyclopentyl isopropylcarbamate], the IC50 (commonly the midpoint of a concentration-inhibition curve) at CDK2/Cyclin E1 is 0.576 µM; on CDK1/Cyclin B1, more than 10 µM; in the assay on HEK-293 cells (Homo sapiens, HEK293, 72 h), more than 10 µM.
Consider `CC1(NC(=O)OC2CCC(c3cc(Nc4ccc5c(c4F)CS(=O)(=O)C5)n[nH]3)C2)COC1` (single isomer, unassigned) [Example 15b, cis-3-(3-((4-fluoro-2,2-dioxido-1,3-dihydrobenzo[c]thiophen-5-yl)amino)-1H-pyrazol-5-yl)cyclopentyl (3-methyloxetan-3-yl)carbamate], for which the results for the IC50 against CDK2/Cyclin E1, on CDK1/Cyclin B1 and in the assay with HEK-293 cells (read-out: HEK293 IC50) were 0.002 µM, 0.505 µM and 9.9 µM, respectively.
As to `O=C(NCCC(F)(F)F)O[C@H]1CC[C@@H](c2cc(Nc3ccc4c(c3F)CS(=O)(=O)C4)n[nH]2)C1` (relative stereo) [Example 16, cis-3-(3-((4-fluoro-2,2-dioxido-1,3-dihydrobenzo[c]thiophen-5-yl)amino)-1H-pyrazol-5-yl)cyclopentyl (3,3,3-trifluoropropyl)carbamate], the IC50 against CDK2/Cyclin E1 is 0.0007 µM; on CDK1/Cyclin B1 it was 0.155 µM; in the assay with HEK-293 cells (Homo sapiens, HEK293, 72 h), 0.687 µM.
For `C[C@]1(O)CC[C@@H](NC(=O)OC2CCC(c3cc(Nc4ccc5c(c4F)CS(=O)(=O)C5)n[nH]3)C2)CC1` (stereo partly drawn) [Example 25, cis-3-(3-((4-fluoro-2,2-dioxido-1,3-dihydrobenzo[c]thiophen-5-yl)amino)-1H-pyrazol-5-yl)cyclopentyl ((1s,4s)-4-hydroxy-4-methylcyclohexyl)carbamate], in that order: 0.0018 µM, 0.768 µM and 1.13 µM.
The matching figures for `CC1(NC(=O)OC2CCC(c3cc(Nc4ccc5c(c4F)CS(=O)(=O)C5)n[nH]3)C2)COC1` (single isomer, unassigned) [Example 15a, cis-3-(3-((4-fluoro-2,2-dioxido-1,3-dihydrobenzo[c]thiophen-5-yl)amino)-1H-pyrazol-5-yl)cyclopentyl (3-methyloxetan-3-yl)carbamate]: 0.0019 µM, 1.09 µM and more than 10 µM.
The matching figures for `CC(C)NC(=O)O[C@H]1CC[C@@H](c2cc(Nc3cc4c(cc3F)CS(=O)(=O)C4)n[nH]2)C1` (relative stereo) [Example 27, cis-3-(3-((6-fluoro-2,2-dioxido-1,3-dihydrobenzo[c]thiophen-5-yl)amino)-1H-pyrazol-5-yl)cyclopentyl isopropylcarbamate]: 0.033 µM, 7.45 µM and more than 10 µM.
In the case of `CC1(NC(=O)OC2CCC(c3cc(Nc4ccc5c(c4F)CS(=O)(=O)C5)n[nH]3)C2)CCOC1` (single isomer, unassigned) [Example 13c, cis-3-(3-((4-fluoro-2,2-dioxido-1,3-dihydrobenzo[c]thiophen-5-yl)amino)-1H-pyrazol-5-yl)cyclopentyl (3-methyltetrahydrofuran-3-yl)carbamate], the IC50 at CDK2/Cyclin E1 came out at 0.0005 µM; at CDK1/Cyclin B1, 0.208 µM; in the assay with HEK-293 cells (read-out: HEK293 IC50), 1.72 µM.
As to `O=C(NC1COC1)O[C@H]1CC[C@@H](c2cc(Nc3ccc4c(c3F)CS(=O)(=O)C4)n[nH]2)C1` (relative stereo) [Example 20, cis-3-(3-((4-fluoro-2,2-dioxido-1,3-dihydrobenzo[c]thiophen-5-yl)amino)-1H-pyrazol-5-yl)cyclopentyl oxetan-3-ylcarbamate], the IC50 on CDK2/Cyclin E1 was 0.031 µM; against CDK1/Cyclin B1, 4.83 µM; in the assay on HEK-293 cells (Homo sapiens, HEK293, 72 h) it was more than 10 µM.
For `O=C(N[C@H]1CC[C@H](O)CC1)OC1CCC(c2cc(Nc3ccc4c(c3F)CS(=O)(=O)C4)n[nH]2)C1` (stereo partly drawn) [Example 26, cis-3-(3-((4-fluoro-2,2-dioxido-1,3-dihydrobenzo[c]thiophen-5-yl)amino)-1H-pyrazol-5-yl)cyclopentyl ((1r,4r)-4-hydroxycyclohexyl)carbamate], in that order: 0.0015 µM, 0.376 µM and 0.998 µM.
The matching figures for `Cc1c(Nc2cc([C@@H]3CC[C@H](OC(=O)NC(C)C)C3)[nH]n2)ccc2c1CS(=O)(=O)C2` (relative stereo) [Example 35, cis-3-(3-((4-methyl-2,2-dioxido-1,3-dihydrobenzo[c]thiophen-5-yl)amino)-1H-pyrazol-5-yl)cyclopentyl isopropylcarbamate]: 0.0004 µM, 0.169 µM and 0.739 µM.
As to `CCNC(=O)OC1CCC(c2cc(Nc3ccc4c(c3F)CS(=O)(=O)C4)n[nH]2)C1` (single isomer, unassigned) [Example 18a, cis-3-(3-((4-fluoro-2,2-dioxido-1,3-dihydrobenzo[c]thiophen-5-yl)amino)-1H-pyrazol-5-yl)cyclopentyl ethylcarbamate], the IC50 against CDK2/Cyclin E1 was 0.0052 µM; on CDK1/Cyclin B1, 1.3 µM; in the assay with HEK-293 cells (read-out: HEK293 IC50) it was more than 10 µM.
With `O=C(N[C@H]1CC[C@@H](O)CC1)OC1CCC(c2cc(Nc3ccc4c(c3F)CS(=O)(=O)C4)n[nH]2)C1` (stereo partly drawn) [Example 17, cis-3-(3-((4-fluoro-2,2-dioxido-1,3-dihydrobenzo[c]thiophen-5-yl)amino)-1H-pyrazol-5-yl)cyclopentyl ((1s,4s)-4-hydroxycyclohexyl)carbamate], the IC50 on CDK2/Cyclin E1 stood at 0.0023 µM; against CDK1/Cyclin B1, 0.824 µM; in the assay on HEK-293 cells (Homo sapiens, HEK293, 72 h), 0.991 µM.
Regarding `O=C(NC1CCOC1)OC1CCC(c2cc(Nc3ccc4c(c3F)CS(=O)(=O)C4)n[nH]2)C1` (single isomer, unassigned) [Example 24a, cis-3-(3-((4-fluoro-2,2-dioxido-1,3-dihydrobenzo[c]thiophen-5-yl)amino)-1H-pyrazol-5-yl)cyclopentyl (tetrahydrofuran-3-yl)carbamate], the IC50 at CDK2/Cyclin E1 was 0.017 µM; against CDK1/Cyclin B1, 4.73 µM; with HEK-293 cells (Homo sapiens, HEK293, 72 h), more than 10 µM.
As to `CC(C)NC(=O)O[C@H]1CC[C@@H](c2cc(Nc3cc4c(cc3F)CSC4)n[nH]2)C1` (relative stereo) [Example 30, cis-3-(3-((6-fluoro-1,3-dihydrobenzo[c]thiophen-5-yl)amino)-1H-pyrazol-5-yl)cyclopentyl isopropylcarbamate], the IC50 on CDK2/Cyclin E1 was 0.383 µM; at CDK1/Cyclin B1, more than 10 µM; in the assay with HEK-293 cells (Homo sapiens, HEK293, 72 h) it was more than 10 µM.
As for `CC(C)(CO)NC(=O)O[C@H]1CC[C@@H](c2cc(Nc3ccc4c(c3F)CS(=O)(=O)C4)n[nH]2)C1` (relative stereo) [Example 19, cis-3-(3-((4-fluoro-2,2-dioxido-1,3-dihydrobenzo[c]thiophen-5-yl)amino)-1H-pyrazol-5-yl)cyclopentyl (1-hydroxy-2-methylpropan-2-yl)carbamate], the IC50 against CDK2/Cyclin E1 came out at 0.0008 µM; against CDK1/Cyclin B1 it was 0.181 µM; in the assay on HEK-293 cells (Homo sapiens, HEK293, 72 h) it was 0.201 µM.
The matching figures for `CC(C)NC(=O)O[C@H]1CC[C@@H](c2cc(Nc3ccc4c(c3F)CSC4)n[nH]2)C1` (relative stereo) [Example 33, cis-3-(3-((4-fluoro-1,3-dihydrobenzo[c]thiophen-5-yl)amino)-1H-pyrazol-5-yl)cyclopentyl isopropylcarbamate]: 0.022 µM, 4.88 µM and more than 10 µM.

Source of the values: US20260176282A1, “BICYCLIC COMPOUNDS AS CDK INHIBITORS” (BEONE MEDICINES I GMBH, priority 2023, published 2026).
